These results are taken from PubChem BioAssay (NCI).

Some test systems named below: OVCAR-3 ovarian; ACHN renal; SK-MEL-5 melanoma; RXF 393 renal; UACC-62 melanoma; HL-60(TB) leukemia; SF-539 CNS; NCI-H522 lung.
What all share (experiment): NCI anticancer screen, dose series, 48 h

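In this assay, cells in 96-well plates receive the compound at five concentrations for 48 hours. Endpoints are linearly interpolated between the surrounding concentrations. Abbreviation: GI50, concentration required for 50% inhibition of growth. Definition used: TGI = concentration required for complete inhibition of growth.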

In the case of `CC(=O)O[C@H]1CCC2[C@@H]3CCC4NC(=O)C(C#N)C[C@]4(C)C3CC[C@@]21C` (stereo partly specified), the TGI with OVCAR-3 ovarian, in the test on ACHN renal, in the test with SK-MEL-5 melanoma, in the test on RXF 393 renal, in the test with UACC-62 melanoma and in the test with HL-60(TB) leukemia was over 10 µM each time. The same compound displayed a TGI in the test on SF-539 CNS of over 10 µM.
In the case of `Nn1c(Sc2nc3ccccc3c(=O)n2N)nc2ccccc2c1=O`, the TGI with OVCAR-3 ovarian worked out at 40.3 µM; in the test with ACHN renal, 26.4 µM; in the test with SK-MEL-5 melanoma it was 11.5 µM; with RXF 393 renal, 25.1 µM; with UACC-62 melanoma, 25.6 µM; in the test on SF-539 CNS, 6.24 µM. Also, in the test on NCI-H522 lung, the TGI was 3.57 µM.
`CC1(C)C=[N+]([O-])C(C)(C)N1O`: the TGI with OVCAR-3 ovarian, in the test with ACHN renal, with RXF 393 renal, in the test on HL-60(TB) leukemia and in the test on NCI-H522 lung was over 10 µM each time.
Turning to `N#C/C(=C1/c2cc([N+](=O)[O-])ccc2-c2c1cc([N+](=O)[O-])cc2[N+](=O)[O-])N1CCCCC1`, the TGI in the test with OVCAR-3 ovarian, with ACHN renal, with SK-MEL-5 melanoma, in the test on RXF 393 renal, in the test with UACC-62 melanoma and with NCI-H522 lung was over 100 µM throughout.
Take `CC(C)(CN1CCCCC1)C(/C=C/c1ccccc1)=N\NC(=O)N/N=C(/C=C/c1ccccc1)C(C)(C)CN1CCCCC1`: the TGI in the test on OVCAR-3 ovarian came out at 6.82 µM; with ACHN renal, 11.9 µM; with SK-MEL-5 melanoma, 3.1 µM; with UACC-62 melanoma, 2.89 µM; in the test with HL-60(TB) leukemia, 2.86 µM; in the test with NCI-H522 lung it was 3.35 µM.
As to `COC(=O)/C=c1/c2ccccc2n2c1c1ccccc1[n+]2C`, the TGI in the test on OVCAR-3 ovarian stood at 21.9 µM; in the test with ACHN renal, 14.7 µM; with SK-MEL-5 melanoma it was 8.12 µM; in the test on RXF 393 renal, 17.4 µM; in the test on UACC-62 melanoma, 27.5 µM; in the test with HL-60(TB) leukemia, 8.44 µM. Also, in the test with SF-539 CNS, the TGI came to 14 µM.
For the compound `CCN1CCCn2c(=O)[nH]c3cc(Br)cc1c32`, the TGI in the test on OVCAR-3 ovarian was over 100 µM; in the test on ACHN renal, over 100 µM; with SK-MEL-5 melanoma it was over 100 µM; in the test with RXF 393 renal, 54.6 µM; in the test with UACC-62 melanoma, over 100 µM; in the test with HL-60(TB) leukemia it was over 100 µM. The same compound registered a TGI in the test with SF-539 CNS of over 100 µM.
As to `Cc1c(C#N)c(=N)oc2ccccc12`, the TGI with OVCAR-3 ovarian, in the test on ACHN renal, in the test with SK-MEL-5 melanoma, with RXF 393 renal, with UACC-62 melanoma and with HL-60(TB) leukemia was over 100 µM in each case. Moreover, the TGI with SF-539 CNS was over 100 µM.
Take `O=c1oc2cccnc2n1CCCCN1CCN(c2ccccc2)CC1`: the TGI in the test on OVCAR-3 ovarian, in the test with ACHN renal, with SK-MEL-5 melanoma, in the test with RXF 393 renal, with HL-60(TB) leukemia and with SF-539 CNS was over 100 µM throughout. The TGI with NCI-H522 lung is over 100 µM.
`COc1cc2oc(=O)cc(C)c2c(OC)c1OC(C)=O`: the TGI in the test on OVCAR-3 ovarian, in the test with ACHN renal, in the test on SK-MEL-5 melanoma and in the test with UACC-62 melanoma was over 100 µM in each case.
Turning to `Cn1c2ccc(C3=NCCN3)cc2c2cc(C3=NCCN3)ccc21`, the TGI in the test on OVCAR-3 ovarian, with ACHN renal, in the test on SK-MEL-5 melanoma, in the test on RXF 393 renal, with SF-539 CNS and with NCI-H522 lung was over 100 µM throughout.
Regarding `COC(=O)[C@@]1(C)CCC[C@]2(C(=O)O)C3Cc4occc4[C@H](C)[C@@H]3CCC21` (stereo partly specified), the TGI with OVCAR-3 ovarian, in the test with ACHN renal, in the test on SK-MEL-5 melanoma, in the test with RXF 393 renal, with UACC-62 melanoma and in the test on HL-60(TB) leukemia was over 100 µM throughout. In the test on SF-539 CNS, this compound yielded a TGI of over 100 µM.
Regarding `CC(C)(C)C(=O)N1CCN(C=O)C1=S`, the TGI with OVCAR-3 ovarian is over 100 µM; in the test with ACHN renal, over 100 µM; with RXF 393 renal, 81.9 µM; with UACC-62 melanoma, over 100 µM; in the test with HL-60(TB) leukemia, over 100 µM; with SF-539 CNS, over 100 µM. In the test on NCI-H522 lung, this compound showed a TGI of over 100 µM.
As for `Cc1cn(CCOCCOC(=O)NC(CCCNC(N)=O)C(=O)O)c(=O)[nH]c1=O` (stereo unspecified), the TGI in the test on OVCAR-3 ovarian, in the test with ACHN renal, in the test on RXF 393 renal, with UACC-62 melanoma, with HL-60(TB) leukemia and with SF-539 CNS was over 100 µM in each case.
In the case of `NC(=S)NNC(=S)NC(=O)c1ccco1`, the TGI with OVCAR-3 ovarian, with ACHN renal, with SK-MEL-5 melanoma, with RXF 393 renal, with UACC-62 melanoma and in the test on HL-60(TB) leukemia was over 10 µM throughout.
On to `C[PH+](c1nc2ccccc2nc1[PH+](C)C(C)(C)C)C(C)(C)C.C[PH+](c1nc2ccccc2nc1[PH+](C)C(C)(C)C)C(C)(C)C.[Au+].[Cl-]` (stereo unspecified), for which the GI50 in the test on ACHN renal is 0.113 µM; in the test with SK-MEL-5 melanoma, 0.0329 µM; with RXF 393 renal, 0.103 µM; in the test on UACC-62 melanoma, 0.0371 µM; in the test with HL-60(TB) leukemia, 0.07 µM; with SF-539 CNS, 0.053 µM. Further, the TGI in the test on ACHN renal amounted to 0.835 µM; in the test on SK-MEL-5 melanoma it was 0.105 µM; in the test with RXF 393 renal it was 0.449 µM; in the test on UACC-62 melanoma it was 0.165 µM; with HL-60(TB) leukemia it was 1.02 µM; with SF-539 CNS, 1.14 µM.
With `COc1cc2c(cc1OC)C(=O)/C(=C/c1ccc(O)cc1)CC2`, the TGI in the test on OVCAR-3 ovarian, in the test on ACHN renal, in the test with SK-MEL-5 melanoma, with RXF 393 renal, with UACC-62 melanoma and with HL-60(TB) leukemia was over 10 µM throughout. This compound also showed a TGI in the test with SF-539 CNS of over 10 µM.
In the case of `O=NN1CCCS1(=O)=O`, the TGI with OVCAR-3 ovarian, in the test with ACHN renal, in the test on SK-MEL-5 melanoma, in the test with RXF 393 renal, with UACC-62 melanoma and in the test with HL-60(TB) leukemia was over 100 µM each time. This compound also gave a TGI with SF-539 CNS of over 100 µM.
